Format in all cases: in vitro ADME
A short description of data set [1]: Metabolic stability assay in human liver microsomes (HLM). Conditions: 1 μM. In outline: (§1)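 In Protocol 1, compound was 1 μM final with NADPH at 37 °C, sampled at 0–45 min. In Protocol 2, 1.5 μM compound with 0.75 mg/mL microsomes (pre-NADPH mix) in 0.1 M potassium phosphate, 1 mM EDTA, pH 7.4 was pre-incubated 10 min, then NADPH started the reaction. Both: LC-MS/MS % remaining versus time 0, half-life from single-phase exponential fit.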
(In general: Liver microsomes are a subcellular fraction often used to study metabolism.)

Data set [2] in a line: Metabolic stability assay in rat liver microsomes (RLM). Particulars: 1 μM. In outline:
as §1

The next data set is described as follows: Human plasma stability. Conditions: plasma; for % Remaining @ 2 h: 5 μM. In a few lines:
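Protocol 1: 1 μM compound in pH 7.4 sodium-heparin human plasma at 37° C, sampled 0–120 min. Protocol 2: 5 μM in plasma at pH 7.4–8.0, 37° C, duplicates, sampled 0–120 min. Both: LC-MS/MS percent remaining versus t0; half-life from single-phase exponential decay.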

With `O=C(OCC12CCN(CC1)CC2)c1c[nH]c2cc(O)cc(Cl)c12` [Compound 46, quinuclidin-4-ylmethyl 4-chloro-6-hydroxy-1H-indole-3-carboxylate], the HLM in data set [1] (human, microsomes) is reported as 7.385 mL/min/kg. Further, in data set [2] (rat, microsomes), the RLM turned out to be 32.4827 mL/min/kg. In addition, the “% Remaining @ 2 h” value in the data set “Human plasma stability” (human, 2 h) is listed as 91.9%.
`Cc1cc(Cl)c2c(C(=O)OCC34CCN(CC3)CC4)c[nH]c2c1.Cl` [Compound 65, quinuclidin-4-ylmethyl 4-chloro-6-methyl-1H-indole-3-carboxylate hydrochloride] had an HLM in data set [1] (Protocol No. 1, human liver microsomes) of 2.253 mL/min/kg. In data set [2] (Protocol No. 1, rat liver microsomes), this compound showed an RLM of 286.666 mL/min/kg. Besides, in the data set “Human plasma stability” (Protocol No. 2, 37° C.), the “% Remaining @ 2 h” value is 72.66%.
In data set [1] (human, microsomes), `COc1c(OCC(F)(F)F)ccc2[nH]cc(C(=O)OCC34CCN(CC3)CC4)c12` [Compound 88, quinuclidin-4-ylmethyl 4-methoxy-5-(2,2,2-trifluoroethoxy)-1H-indole-3-carboxylate] yielded an HLM of 3.31 mL/min/kg. The RLM in data set [2] (rat, microsomes) is 25.96 mL/min/kg. For the same compound, the T1/2 entry in the data set “Human plasma stability” (human) is on record as “∞”. In addition, the “% Remaining @ 2 h” value in “Human plasma stability” (human, 2 h) turned out to be 110.47%.

The values are drawn from patent US9434724B2, “Quinuclidines for modulating alpha 7 activity” (priority 2014, dated 2016).
